Data as given in patent US20060069132A1, “Azolecarboxamide herbicides” (priority 2004, published 2006).

What was measured:
[1] = tested on: redroot pigweed; assay: Test A pre-/postemergence herbicide test; assay type: in vivo, Amaranthus retroflexus; conditions: for Plant response rating, Pigweed: Postemergence; for Pigweed plant response rating: Preemergence
In short: (§1)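 Plants are held in greenhouse about ten days after treatment, then compared with untreated controls and scored 0 (no effect) to 100 (complete control). Preemergence dosing is a directed soil spray on sown sandy loam; postemergence dosing is spray to runoff at 2–10 cm height.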

[2] = tested on: barnyardgrass; assay: Test B pre-/postemergence herbicide test; assay type: in vivo, Echinochloa crus-galli
In short: (§2)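 Response was scored visually 13 to 15 days after treatment against untreated greenhouse controls, 0 meaning no effect and 100 complete control. Formulations (solvent mixture plus surfactant) went onto soil after planting, onto foliage of 1- to 4-leaf plants, and onto 2-leaf plants in a flooded paddy set including rice and barnyardgrass.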

[3] = tested on: large crabgrass; assay: Test B pre-/postemergence herbicide test; assay type: in vivo, Digitaria sanguinalis
In short: (§3)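 Pre: seeds sown, then sprayed. Post: 1–4-leaf plants (2–18 cm) sprayed at the same time. Paddy: flooded, treated at 2-leaf stage. Formulation: non-phytotoxic solvent with surfactant. Greenhouse 13–15 days; visual 0–100 score relative to controls.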

[4] = tested on: small flower umbrella sedge; assay: Test B flooded paddy test; assay type: in vivo, Cyperus difformis; conditions: 1000 g ai/ha, visual rating, scale 0 to 100 (0 no effect, 100 complete control), 13 to 15 days
In short: (§4)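 Visual control ratings, 0–100 versus untreated controls, taken after 13 to 15 days in the greenhouse. Blackgrass received a postemergence spray at the 1- to 4-leaf stage (2–18 cm); ducksalad, umbrella sedge and barnyardgrass were flooded-paddy treated at 2 leaves.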

[5] = tested on: blackgrass; assay: Test B postemergence herbicide test; assay type: in vivo, Alopecurus myosuroides; conditions: scale 0 (no effect) to 100 (complete control)
In short: as §4

[6] = tested on: giant foxtail; assay: Test A pre-/postemergence herbicide test; assay type: in vivo, Setaria faberi; conditions: for Plant response rating, Foxtail, Giant: Postemergence; for Foxtail, Giant plant response rating: Preemergence
In short: as §1

[7] = tested on: corn; assay: Test B pre-/postemergence herbicide test; assay type: in vivo, Zea mays
In short: as §3

[8] = tested on: wheat; assay: Test B postemergence herbicide test; assay type: in vivo, Triticum aestivum; set-up: key to Wheat plant response rating: 0 = no effect, 100 = complete control; conditions: scale 0 (no effect) to 100 (complete control)
In short: (§5)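 Formulated test chemicals went onto postemergence plants measuring 2 to 18 cm, at one to four leaves. For the paddy assay, species had reached two leaves. Scoring took place 13–15 days later by eye, relative to untreated plants, using 0 for no effect up to 100 for full control.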

[9] = tested on: barnyardgrass; assay: Test A pre-/postemergence herbicide test; assay type: in vivo, Echinochloa crus-galli; conditions: for Plant response rating, Barnyardgrass: Postemergence; for Barnyardgrass plant response rating: Preemergence
In short: as §1

[10] = tested on: large crabgrass; assay: Test A pre-/postemergence herbicide test; assay type: in vivo, Digitaria sanguinalis; conditions: for Plant response rating, Crabgrass, Large: Postemergence; for Crabgrass, Large plant response rating: Preemergence
In short: as §1

[11] = tested on: wild oat; assay: Test B postemergence herbicide test; assay type: in vivo, Avena fatua; conditions: scale 0 (no effect) to 100 (complete control)
In short: as §5

[12] = tested on: velvetleaf; assay: Test A pre-/postemergence herbicide test; assay type: in vivo, Abutilon theophrasti; conditions: for Velvetleaf plant response rating: Preemergence, visual rating, 0 to 100 scale (0 no effect, 100 complete control)
In short: as §1

[13] = tested on: pigweed; assay: Test B pre-/postemergence herbicide test; assay type: in vivo, Amaranthus retroflexus
In short: as §3

[14] = tested on: morningglory; assay: Test B pre-/postemergence herbicide test; assay type: in vivo, Ipomoea coccinea; conditions: preemergence, 125 g ai/ha; 0 to 100 scale, 0 is no effect, 100 is complete control
In short: as §2

[15] = tested on: morningglory; assay: Test A pre-/postemergence herbicide test; assay type: in vivo, Ipomoea spp.; conditions: for Plant response rating, Morningglory: Postemergence; for Morningglory plant response rating: Preemergence
In short: as §1

[16] = tested on: ducksalad; assay: Test B flooded paddy test; assay type: in vivo, Heteranthera limosa; conditions: 1000 g ai/ha, visual rating, scale 0 to 100 (0 no effect, 100 complete control), 13 to 15 days
In short: as §4

[17] = tested on: rice; assay: Test B flooded paddy test; assay type: in vivo, Oryza sativa; conditions: 1000 g ai/ha, visual rating, scale 0 to 100 (0 no effect, 100 complete control), 13 to 15 days
In short: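 Plants grow to 1- to 4-leaf stage (2–18 cm) for postemergence spraying, or to 2-leaf stage for the paddy test. Formulated compound is applied. Greenhouse holding lasts 13–15 days. Response is scored visually relative to controls, 0 no effect to 100 complete control; a dash means no result.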

[18] = tested on: lambsquarters; assay: Test B pre-/postemergence herbicide test; assay type: in vivo, Chenopodium album
In short: as §3

[19] = tested on: giant foxtail; assay: Test B pre-/postemergence herbicide test; assay type: in vivo, Setaria faberi
In short: as §3

[20] = tested on: barnyardgrass; assay: Test B flooded paddy test; assay type: in vivo, Echinochloa crus-galli; conditions: 1000 g ai/ha, visual rating, scale 0 to 100 (0 no effect, 100 complete control), 13 to 15 days
In short: as §4

[21] = tested on: cocklebur; assay: Test B pre-/postemergence herbicide test; assay type: in vivo, Xanthium strumarium
In short: as §2

[22] = tested on: Surinam grass; assay: Test B pre-/postemergence herbicide test; assay type: in vivo, Urochloa decumbens
In short: as §3

[23] = tested on: velvetleaf; assay: Test B pre-/postemergence herbicide test; assay type: in vivo, Abutilon theophrasti
In short: as §3

[24] = 500 g ai/ha, 0 to 100 scale, 0 no effect, 100 complete control
[25] = 2000 g ai/ha, 0 to 100 scale, 0 no effect, 100 complete control
[26] = 500 g ai/ha, visual rating, 0 to 100 scale (0 no effect, 100 complete control)
[27] = Postemergence, 500 g ai/ha, visual rating after 13 to 15 days, scale 0 (no effect) to 100 (complete control)
[28] = Preemergence, 500 g ai/ha, scale 0 to 100
[29] = postemergence, 125 g ai/ha, visual rating, scale 0 (no effect) to 100 (complete control)
[30] = preemergence, 125 g ai/ha, 0 to 100 scale, 0 is no effect, 100 is complete control
[31] = Postemergence, 500 g ai/ha, visual rating after 13 to 15 days
[32] = postemergence, 125 g ai/ha, visual rating

C=Cn1nc(C(C)(C)C)cc1C(=O)Nc1cccc(C(=O)OCC)c1 [Compound 78]
0: Barnyardgrass plant response rating [2, 28] | Plant response rating, Barnyardgrass [2, 30] | Plant response rating, Crabgrass, Large [3, 30] | Corn plant response rating [7, 28] | Plant response rating, Corn [7, 30] | Plant response rating, Pigweed [13, 30] | Plant response rating, Morningglory [14] | Plant response rating, Lambsquarters [18, 30] | Cocklebur plant response rating [21, 28] | Plant response rating, Cocklebur [21, 30] | Plant response rating, Surinam Grass [22, 30]
100: Plant response rating, Cocklebur [21, 27]
90: Plant response rating, Pigweed [1, 25] | Pigweed plant response rating [1, 25] | Crabgrass, Large plant response rating [10, 25] | Plant response rating, Pigweed [13, 27]
70: Foxtail, Giant plant response rating [6, 25] | Lambsquarters plant response rating [18, 29] | Velvetleaf plant response rating [23, 29]
80: Pigweed plant response rating [1, 26] | Sedge, Umbrella plant response rating [4] | Pigweed plant response rating [13, 29] | Plant response rating, Lambsquarters [18, 27] | Cocklebur plant response rating [21, 29] | Plant response rating, Velvetleaf [23, 27]
15: Plant response rating, Morningglory [15, 24]
25: Plant response rating, Morningglory [15, 25] | Morningglory plant response rating [15, 26]
35: Plant response rating, Crabgrass, Large [10, 25]
55: Foxtail, Giant plant response rating [6, 26]
40: Plant response rating, Barnyardgrass [9, 25] | Morningglory plant response rating [15, 25] | Rice plant response rating [17]
85: Plant response rating, Pigweed [1, 24]
60: Plant response rating, Foxtail, Giant [6, 25] | Crabgrass, Large plant response rating [10, 26]
45: Barnyardgrass plant response rating [9, 25]
10: Crabgrass, Large plant response rating [3, 28] | Oat, Wild plant response rating [11, 32] | Plant response rating, Foxtail, Giant [19, 30] | Plant response rating, Velvetleaf [23, 30]
50: Plant response rating, Velvetleaf ([12]; Postemergence, 2000 g ai/ha, 0 to 100 scale, 0 no effect, 100 complete control) | Velvetleaf plant response rating ([12]; 2000 g ai/ha)
20: Crabgrass, Large plant response rating [3, 29] | Blackgrass plant response rating [5, 32] | Plant response rating, Foxtail, Giant [6, 24] | Barnyardgrass plant response rating [9, 26] | Plant response rating, Crabgrass, Large [10, 24] | Plant response rating, Oat, Wild [11, 31] | Plant response rating, Surinam Grass [22, 27] | Surinam Grass plant response rating [22, 29]
30: Plant response rating, Barnyardgrass [2, 27] | Barnyardgrass plant response rating [2, 29] | Plant response rating, Crabgrass, Large [3, 27] | Plant response rating, Blackgrass [5, 31] | Plant response rating, Wheat [8, 31] | Wheat plant response rating [8, 32] | Plant response rating, Barnyardgrass [9, 24] | Velvetleaf plant response rating ([12]; 500 g ai/ha) | Ducksalad plant response rating [16] | Plant response rating, Foxtail, Giant [19, 27] | Foxtail, Giant plant response rating [19, 28] | Foxtail, Giant plant response rating [19, 29] | Barnyardgrass plant response rating [20]
